Target: HSPA8 (Hsc70) (Bos taurus, UniProt P19120)
Assay: […]-1H TROSY NMR titration
Format: binding

Sequence of HSPA8 (Hsc70) (P19120 1-383): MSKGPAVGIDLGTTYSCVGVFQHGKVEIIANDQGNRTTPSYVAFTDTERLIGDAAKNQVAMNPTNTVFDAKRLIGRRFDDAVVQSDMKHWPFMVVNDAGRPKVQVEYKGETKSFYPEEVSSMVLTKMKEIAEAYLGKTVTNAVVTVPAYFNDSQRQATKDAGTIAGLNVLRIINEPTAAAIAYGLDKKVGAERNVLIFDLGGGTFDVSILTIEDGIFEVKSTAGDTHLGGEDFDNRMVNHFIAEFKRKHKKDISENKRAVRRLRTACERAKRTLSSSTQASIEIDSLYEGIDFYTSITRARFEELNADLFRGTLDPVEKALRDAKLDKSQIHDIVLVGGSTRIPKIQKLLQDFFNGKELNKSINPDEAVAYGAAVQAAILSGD

CCn1c(=Cc2cccc[n+]2CC)sc(=C2Sc3ccccc3N2C)c1=O [MKT-077, 1-ethyl-2-[[3-ethyl-5-(3-methylbenzothiazolin-2-yliden)]-4-oxothiazolidin-2-ylidenemethyl] pyridinium chloride] showed a Kd of less than 10 µM.

— publication PMC3146629 (2011)
